According to patent US20080058345A1, “Combination Therapy with Mecamylamine for the Treatment of Mood Disorders” (priority 2004, published 2008):

Test system: individuals with major depression who are partial responders (based on HAM-D scores) to selective serotonin reuptake inhibitors
Experiment: 8-week clinical trial of mecamylamine plus SSRI antidepressant versus placebo plus antidepressant
Type: in vivo, human
Protocol: The treatment of depressive symptoms in individuals with major depression who are partial responders (based on HAM-D scores) to selective serotonin reuptake inhibitors (e.g., fluoxetine, sertraline, citalopram, paroxetine, fluvoxamine) was assessed.
Subjects (n=13) were randomly assigned to one of two groups, designated mecamylamine or MEC and Placebo, respectively, for an 8-week clinical trial. Individuals in the MEC group received mecamylamine plus an antidepressant and those in the placebo group received placebo plus an antidepressant Eleven subjects (n=6 randomized to MEC, n=5 to placebo) have completed this 8-week clinical trial and results are presented for those individuals. Two subjects are currently enrolled in the protocol. No clinical or demographic differences have been found between subjects randomized to MEC versus Placebo (Table). […] These preliminary results support our primary hypothesis that central nAChR antagonism augments SSRI-treated refractory major depression.

`CNC1(C)C2CCC(C2)C1(C)C` (stereo not shown) [MEC, Bicyclo(2.2.1)heptan-2-amine, N,2,3,3-tetramethyl-] was tested, and the “difference between MEC and Placebo groups on any adverse events” value (8-week trial, MEC plus antidepressant versus placebo plus antidepressant) was “no significant differences”, the “adverse event: report of decreased libido (subjects reporting)” value (8-week trial, MEC plus antidepressant, placebo 1/5, p=0.06) was 4/5 and the “adverse event: constipation (subjects reporting)” value (8-week trial, MEC plus antidepressant, placebo 3/5, p=0.11) was 5/6. The “subjects classified as responders, as assessed by a 50% reduction in HAM-D scores” value (end of 8-week trial, MEC plus antidepressant, n=6 completers, placebo 0/5, p=0.02) was “Four out of six”.
